Measured values taken from patent US5973112A, “Collagen mimics” (Wisconsin Alumni Research Foundation, priority 1997, dated 1999).

Assays:
[1] = crystalline structure, Cγ-Cδ bond length; assay type: physicochemical
Description: The origin of this effect on trans:cis ratio was explored by determining the crystalline structures of AcProOMe, AcHypOMe, and AcFlpOMe, Panasik et al., Int. J. Pept. Protein Res., 44:262-269. […] This order is consistent with an inductive effect in which the substituent in the 4-position withdraws electron density away from the Cγ-Cδ bond. A shorter Cγ-Cδ bond length diminishes steric clashes between atoms in the trans isomer, but has no effect on the cis isomer. The inductive effect from the hydroxyl group of Hyp residues is consistent with the effect of Hyp on collagen stability. Other manifestations of the inductive effects of Hyp and Flp residues were also found by Panasik et al. and by Eberhardt et al. Similar inductive effects should be manifested in 4(S)-fluoroproline and in 4,4-difluoroproline.

[2] = trans:cis ratio of the proline peptide bond in N-acetyl proline methylester derivatives; assay type: physicochemical; settings: for ΔΔG: relative to AcProOMe
Method: To begin to test this hypothesis, it was determined how electron-withdrawing groups affect the trans:cis ratio. N-Acetyl proline methylester (AcProOMe), N-acetyl-4(R)-hydroxyproline methylester (AcHypOMe), and N-acetyl-4(R)-fluoroproline (AcFlpOMe) were synthesized and their preferences for the trans state were determined, Eberhardt et al., J. Am. Chem. Soc., 118:12261-12266 (1996).

Cy-Cδ bond length [1] [Å]	trans:cis ratio [2]	ΔΔG [2] [kcal/mol]	SMILES
1.510	5.8	0.18	COC(=O)[C@@H]1C[C@@H](O)CN1C(C)=O [AcHypOMe, N-acetyl-4(R)-hydroxyproline methylester]
1.523	4.3	0	COC(=O)[C@@H]1CCCN1C(C)=O [AcProOMe, N-Acetyl proline methylester]
